Patent US20160120861A1, “Compositions and Methods for Treating an Arrhythmia with an Opioid Antagonist” (PURDUE PHARMA L.P., priority 2013, published 2016)

Test: QT study following E14 principles: ECG effects (QTcI) of BTDS alone, BTDS with naltrexone, naltrexone and moxifloxacin relative to placebo
Details: for Mean change from baseline (QTcI): 24-hr ECG at steady state
Method: A QT study following E14 principles regarding design, conduct, analysis, and interpretation was conducted with the following objectives
Primary: • To evaluate the ECG effects of 10, 40, and 80 mcg/hr buprenorphine delivered by a Buprenorphine Transdermal System (BTDS) alone, or by BTDS dosed with naltrexone tablets, relative to placebo in healthy male and female subjects
To evaluate the ECG effects of moxifloxacin relative to placebo (assay sensitivity)
To evaluate the ECG effects of BTDS+Naltrexone (NTX) vs. BTDS alone
To evaluate the ECG effects of naltrexone alone vs. placebo
The study was a randomized, double-blind, placebo and positive controlled, parallel group study with the following parameters:
• Healthy male or female subjects aged 18 to 55 years, inclusive • Heart rate between 45-85 bpm • No clinically significant medical history or disease • Subjects with personal or family history of prolonged QT interval or abnormal cardiovascular condition excluded
60 subjects/treatment group
• 1) BTDS alone (Butrans® 5, 10, 20, 40, 80 mcg/hr) • 2) Moxifloxacin (400 mg single doses on Days 6, 13, 17) • 3) Placebo • 4) Naltrexone alone (NTX 50 mg q12 h days 4-17) • 5) BTDS+Naltrexone (BTDS 10, 20, 40, 80 mcg/hr with NTX 50 mg q12 h days 4-17)
BTDS or matching placebo patches were applied according to a dose-escalation and dose tapering scheme
24-hr ECG were collected at steady-state for each BTDS dose level at Days 6 (10 mcg/hr), 13 (40 mcg/hr) and 17 (80 mcg/hr).
Continuous 24-hr 12-lead digital Holter ECG collections were performed as follows: • Two 24-hour baseline recordings (Days −2 and −1) • Three 24-hour periods on-treatment for Days 6 (10 mcg/hr), 13 (40 mcg/hr) and 17 (80 mcg/hr).
ECGs were extracted at 13 time points (0, 0.5, 1, 1.5, 2, 2.5, 3, 4, 7, 10, 13, 18, 23.5 hours) over each 24-hour ECG recording period.
Subjects rested supine for at least 10 minutes prior to each nominal ECG extraction time and activity was limited for the prior 2 hours.
4 ECGs were extracted and quantified at each nominal time point by a blinded central ECG laboratory.
The primary QT correction for heart rate was QTcI. 104 baseline ECGs were used to determine subject-specific HR correction.
Placebo-corrected change from baseline QTcI means and 90% CIs were calculated using a mixed effects general linear model with covariates for time, treatment, time by treatment interaction, and sex.

| Compound | >30-60 ms inc, N (%) (Day 6, QTcI, healthy subjects) | >60 ms inc, N (%) (Day 6, QTcI, healthy subjects) | New >480 ms, N (%) (Day 6, QTcI, healthy subjects) | New >500 ms, N (%) (Day 6, QTcI, healthy subjects) | Mean change from baseline (QTcI) (Day 6, healthy subjects) [ms] | >30-60 ms inc, N (%) (Day 13, QTcI, healthy subjects) | >60 ms inc, N (%) (Day 13, QTcI, healthy subjects) | New >480 ms, N (%) (Day 13, QTcI, healthy subjects) | New >500 ms, N (%) (Day 13, QTcI, healthy subjects) | Mean change from baseline (QTcI) (Day 13, healthy subjects) [ms] | >30-60 ms inc, N (%) (Day 17, QTcI, healthy subjects) | >60 ms inc, N (%) (Day 17, QTcI, healthy subjects) | New >480 ms, N (%) (Day 17, QTcI, healthy subjects) | New >500 ms, N (%) (Day 17, QTcI, healthy subjects) | Mean change from baseline (QTcI) (Day 17, healthy subjects) [ms] | Mean change in baseline of the QT interval as compared to buprenorphine alone (naltrexone administered with buprenorphine) | >60 ms inc, N (%) (both, human, in vivo) | New >480 ms, N (%) (both, human, in vivo) | New >500 ms, N (%) (both, human, in vivo) | QTcI results (positive control, assay sensitivity) (in vivo) |
| --- | --- | --- | --- | --- | --- | --- | --- | --- | --- | --- | --- | --- | --- | --- | --- | --- | --- | --- | --- | --- |
| O=C1CC[C@@]2(O)[C@H]3Cc4ccc(O)c5c4[C@@]2(CCN3CC2CC2)[C@H]1O5 [NTX, naltrexone] | 0 N (%) | 0 N (%) | 0 N (%) | 0 N (%) | 1.5 | 1 (2%) N (%) | 0 N (%) | 0 N (%) | 0 N (%) | -1.7 | 1 (2%) N (%) | 0 N (%) | 0 N (%) | 0 N (%) | -0.9 | reduced | – | – | – | – |
| COc1c(N2C[C@@H]3CCCN[C@@H]3C2)c(F)cc2c(=O)c(C(=O)O)cn(C3CC3)c12 [Moxifloxacin] | – | – | – | – | – | – | – | – | – | – | – | – | – | – | – | – | 0 N (%) | 0 N (%) | 0 N (%) | as expected |
